Experimental data reported in US20260242398A1, “BENZOPYRIMIDIN-4(3H)-ONES AS PI3K INHIBITORS” (OnKure, Inc., priority 2022, published 2026).
Read-outs that look alike come from different tables or passages of the source.

Columns and labels:
[1] = Mouse pharmacokinetics, single IV or PO dose, plasma LC/MS/MS; type: in vivo; details: CD1 mice; for PK-Mouse: PO F: PO 10 mg/kg vs IV 1 mg/kg; for AUC(0-t) / clearance: mouse, plasma; for clearance: read-out: PK-Mouse: IV Cl
Method: CD1 mice were dosed with a single IV or PO dose, followed by serial sampling of plasma at 0.0833 (IV only), 0.25, 0.5, 1, 2, 4, 8, 24 hours post dose. Desired serial concentrations of working solutions were achieved by diluting stock solution of analyte with 50% acetonitrile in water solution. 10 μL of working solutions (0.5, 1, 2, 5, 10, 50, 100, 500, 1000 ng/mL) were added to 10 μL of the blank Female CD1 Mouse plasma to achieve calibration standards of 0.5~1000 ng/mL (0.5, 1, 2, 5, 10, 50, 100, 500, 1000 ng/mL) in a total volume of […]. Five quality control samples at 1 ng/mL, 2 ng/mL, 5 ng/mL, 50 ng/mL and 800 ng/mL for plasma were prepared independently of those used for the calibration curves. These QC samples were prepared on the day of analysis in the same way as calibration standards. 20 μL standards, 20 μL QC samples and 20 μL unknown samples (10 μL plasma with 10 μL blank solution) were added to 200 μL of acetonitrile containing IS mixture for precipitating protein respectively. Then the samples were vortexed for 30 s. after centrifugation at 4° Celsius, 4000 rpm for 15 min. The supernatant was diluted with water at a ratio of 1:2 (V/V, 1:2), Then 5 μL of diluted supernatant was injected into the LC/MS/MS system for quantitative analysis.

[2] = tested on: SKBR3 cells express WT PI3Ka; test: In vitro cell proliferation (CellTiter-Glo, 72 hours), SKBR3 cells; type: cell-based; details: Homo sapiens, SK-BR-3, 72 h, inhibition of proliferation
Summary of the method: (§1)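 1,500 cells/well (T47D in RPMI/10% FBS/insulin 0.2 units/mL; SKBR3 in McCoys 5a/10% FBS) plated onto 10-point compound dilutions and grown 72 h at 37 °C, 5% CO2; CellTiter-Glo luminescence. Inhibition scaled between 0.1% DMSO and 10 uM alpelisib; EC50 from four-parameter logistic fit.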

[3] = tested on: phosphorylation of AKT (pAKT) in T47D cells expressing mutant PI3Ka (H1047R); test: In vitro cell pAKT (Ser473) HTRF, T47D cells; type: cell-based; details: inhibition of pAKT, 6 hour, read-out: Avg T-47D IC50
Summary of the method: (§2)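 T47D (PI3Kα H1047R; RPMI, 10% FBS, insulin) or SKBR3 (WT PI3Kα; McCoy's 5a, 10% FBS) cells, 5000/well, are treated with 10-point compound dilutions for 6 h at 37° C. Lysates are read for pAKT Ser473 by HTRF. Inhibition is normalised to DMSO (0%) and 10 μM alpelisib (100%), and IC50 comes from a four-parameter fit.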

[4] = tested on: phosphorylation of AKT (pAKT) in SKBR3 cells express WT PI3Ka; test: In vitro cell pAKT (Ser473) HTRF, SKBR3 cells; type: cell-based; details: Homo sapiens, SK-BR-3, 6 h, inhibition of pAKT
Summary of the method: as §2

[5] = tested on: T47D cells expressing mutant PI3Ka (H1047R); test: In vitro cell proliferation (CellTiter-Glo, 72 hours), T47D cells; type: cell-based; details: inhibition of proliferation, read-out: Avg T-47D EC50
Summary of the method: as §1

[6] = IV 1 mg/kg, solution in 20% PEG400/20% PG/60% of 20% HPBCD solution in water, read-out: PK-Mouse: IV AUC last
[7] = IV 1 mg/kg, solution in 20% PEG400/20% PG/60% of 20% HPBCD solution in water
[8] = PO 10 mg/kg, suspension in 30% SBEβCD in water, read-out: PK-Mouse PO AUC last

| PK-Mouse: PO F [1] [%] | AUC(0-t) [1, 6] [ng·h/mL] | clearance [1, 7] [mL/min/kg] | AUC(0-t) [1, 8] [ng·h/mL] | EC50 [2] [nM] | IC50 [3] [nM] | IC50 [4] [nM] | EC50 [5] [nM] | Compound |
| --- | --- | --- | --- | --- | --- | --- | --- | --- |
| 61 | 1740 | 8.7 | 10700 | 2000 to 15000 | 1 to 1000 | > 15000 | 1 to 500 | Cc1cc(C(C)Nc2ccc(F)cc2C(=O)O)c2nc(N3CCC(C)(C)CC3)n(C)c(=O)c2c1 (single isomer, unassigned) [Example 29, 2-((1-(2-(4,4-dimethylpiperidin-1-yl)-3,6-dimethyl-4-oxo-3,4-dihydroquinazolin-8-yl)ethyl)amino)-5-fluorobenzoic acid] |
| 187 | 242 | 59.5 | 4520 | > 15000 | 1 to 1000 | > 15000 | 500 to 2000 | CC(Nc1ccccc1C(=O)O)c1cc(F)cc2c(=O)n(C)c(N3CCN(CC(F)(F)F)CC3)nc12 (single isomer, unassigned) [Example 35, 2-((1-(6-fluoro-3-methyl-4-oxo-2-(4-(2,2,2-trifluoroethyl)piperazin-1-yl)-3,4-dihydroquinazolin-8-yl)ethyl)amino)benzoic acid] |
